This is an account of results in patent US10933074B2, “Methods for improving the gastrointestinal tolerance of food and beverage products comprising sweet, low-digestible carbohydrates” (Tate & Lyle Ingredients Americas LLC, priority 2015, dated 2021).

For the data set, the system named is volunteers. Also noted: species or system human. The settings on record: in vivo. The protocol: In this Example, subjects tested 4 different beverages, consumed in the morning with at least one week washout between test days. The beverages were consumed on an empty stomach, and there was instruction for subjects to wait 2 hours before having any other food. The primary outcome was the total gastrointestinal symptom scores over 24-hours for loose stool GI symptom derived from a GI symptoms rating diary. The 4 test beverages (8 oz./236.6 ml) were flavoured with a strawberry mix and contained: 1) 25 g of D-allulose; 2) 25 g of D-allulose and 25 g of D-glucose; 3) 25 g of D-allulose and 1 g of beta-glucan fiber; or 4) 25 g of sucrose. […] On the day of the test, the subjects followed the below set of instructions: • 1. Testing start times begin when you start consuming the drink; record date and time you begin on the diary. • 2. Consume the test drink at the same time each week. • a. Consume the entire drink 8 oz. (236.6 ml) drink in under 15 minutes. • b. Refill the drink container with water and consume as a chaser. • c. You may have additional water after 60 minutes as desired. • 3. Record GI symptom scores at 2, 4 and 24-hours after starting drink consumption. • 4. You may eat a snack or breakfast 2 hours after the test drink. • 5. Record all bowel movements and the Bristol Stool type during the 24-hour observation period. • 6. Resume normal food consumption for the day; however avoid foods which you know may cause gastric upset or gas for the 24-hour observation period. […] The Bristol Stool test scores were scored from 1-7. […]

As for `O=C(CO)[C@H](O)[C@H](O)[C@H](O)CO` [D-allulose], the “number of people reporting symptoms” value is recorded as “greatest”; the “order of softer stools” value is on record as “allulose>allulose+beta-glucan>allulose+D-glucose>sucrose”; the “stool softening (Bristol Stool test score, 24 hour average)” value is reported as “softening effect”.
